Test results from article PMC5513037, “Examining the influence of specificity ligands and ATP-competitive ligands on the overall effectiveness of bivalent kinase inhibitors” (Proteome Science, 2017).

Tests used:
Test in all cases: KAM-matrix competition in K562 lysate;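 as to 0.001 uM KAM: median log10 fold change of treatment over DMSO control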;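 as to 0.01 uM KAM: median log10 fold change of treatment over DMSO control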;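 as to 0.1 uM KAM: median log10 fold change of treatment over DMSO control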;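 as to 1 uM KAM: median log10 fold change of treatment over DMSO control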;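 as to 10 uM KAM: median log10 fold change of treatment over DMSO control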
Assay type in all cases: binding
CDC42BPA = target: T1, CDC42BPA (Homo sapiens, UniProt Q5VT25);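 as to 0.001 uM KAM: median log10 fold change of treatment over DMSO control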;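 as to 0.01 uM KAM: median log10 fold change of treatment over DMSO control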;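 as to 0.1 uM KAM: median log10 fold change of treatment over DMSO control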;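 as to 1 uM KAM: median log10 fold change of treatment over DMSO control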;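 as to 10 uM KAM: median log10 fold change of treatment over DMSO control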
T1 construct: endogenous in cells; host or cells: K562
T1 sequence (Q5VT25 whole entry): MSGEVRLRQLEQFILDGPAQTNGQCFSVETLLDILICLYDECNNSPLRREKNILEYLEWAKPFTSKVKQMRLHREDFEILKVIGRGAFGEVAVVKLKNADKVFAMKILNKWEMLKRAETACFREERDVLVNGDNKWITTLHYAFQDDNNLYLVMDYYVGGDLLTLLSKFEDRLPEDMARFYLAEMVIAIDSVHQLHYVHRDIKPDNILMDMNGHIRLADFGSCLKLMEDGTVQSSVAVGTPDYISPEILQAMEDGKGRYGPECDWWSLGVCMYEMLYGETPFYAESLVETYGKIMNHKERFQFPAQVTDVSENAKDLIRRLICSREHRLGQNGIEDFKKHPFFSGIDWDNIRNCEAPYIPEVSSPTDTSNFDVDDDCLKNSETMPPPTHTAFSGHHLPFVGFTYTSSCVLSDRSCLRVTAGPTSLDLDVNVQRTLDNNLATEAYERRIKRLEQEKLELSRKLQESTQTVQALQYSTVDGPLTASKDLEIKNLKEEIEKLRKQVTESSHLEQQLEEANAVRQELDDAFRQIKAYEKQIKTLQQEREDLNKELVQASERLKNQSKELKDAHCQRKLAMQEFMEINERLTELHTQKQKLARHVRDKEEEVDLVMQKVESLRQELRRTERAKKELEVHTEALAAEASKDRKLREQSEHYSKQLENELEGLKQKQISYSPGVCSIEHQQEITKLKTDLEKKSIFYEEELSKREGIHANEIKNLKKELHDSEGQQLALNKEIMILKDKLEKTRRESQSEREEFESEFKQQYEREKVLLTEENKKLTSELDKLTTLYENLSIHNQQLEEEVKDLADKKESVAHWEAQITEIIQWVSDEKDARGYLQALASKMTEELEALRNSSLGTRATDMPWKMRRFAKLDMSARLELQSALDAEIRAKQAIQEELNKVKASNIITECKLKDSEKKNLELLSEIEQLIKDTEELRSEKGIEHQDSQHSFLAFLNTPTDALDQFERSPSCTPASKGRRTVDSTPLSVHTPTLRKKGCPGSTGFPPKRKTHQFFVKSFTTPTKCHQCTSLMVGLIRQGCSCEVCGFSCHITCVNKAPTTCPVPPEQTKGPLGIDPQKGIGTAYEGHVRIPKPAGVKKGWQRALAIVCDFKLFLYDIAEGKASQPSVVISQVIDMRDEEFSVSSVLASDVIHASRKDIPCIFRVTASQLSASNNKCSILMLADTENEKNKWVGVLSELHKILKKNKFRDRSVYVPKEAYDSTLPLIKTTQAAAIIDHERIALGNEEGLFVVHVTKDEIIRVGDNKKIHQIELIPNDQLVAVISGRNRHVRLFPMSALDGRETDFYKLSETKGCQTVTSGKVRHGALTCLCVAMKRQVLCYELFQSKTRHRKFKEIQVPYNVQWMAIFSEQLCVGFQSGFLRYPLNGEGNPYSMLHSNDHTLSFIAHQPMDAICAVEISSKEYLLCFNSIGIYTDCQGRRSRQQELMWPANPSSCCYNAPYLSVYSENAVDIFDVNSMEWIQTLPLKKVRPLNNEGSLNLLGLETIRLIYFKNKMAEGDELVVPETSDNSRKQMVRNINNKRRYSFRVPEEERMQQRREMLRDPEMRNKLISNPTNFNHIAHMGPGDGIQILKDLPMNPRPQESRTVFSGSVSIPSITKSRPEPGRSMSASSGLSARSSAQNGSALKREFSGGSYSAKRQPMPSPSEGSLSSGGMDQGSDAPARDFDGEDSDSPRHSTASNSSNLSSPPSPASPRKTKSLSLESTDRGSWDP
Procedure: (§1) Supplement 12953_2017_125_MOESM1_ESM.zip/MS_Supp Info.xlsx, sheet "KAM" | column: 10 uM KAM; 1 uM KAM; 0.1 uM KAM; 0.01 uM KAM; 0.001 uM KAM; RB50

HUNK = target: T2, HUNK (Homo sapiens, UniProt P57058);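 as to 0.001 uM KAM: median log10 fold change of treatment over DMSO control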;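 as to 0.01 uM KAM: median log10 fold change of treatment over DMSO control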;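 as to 0.1 uM KAM: median log10 fold change of treatment over DMSO control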;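 as to 1 uM KAM: median log10 fold change of treatment over DMSO control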;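 as to 10 uM KAM: median log10 fold change of treatment over DMSO control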
T2 construct: endogenous in cells; host or cells: K562
T2 sequence (P57058 1-714): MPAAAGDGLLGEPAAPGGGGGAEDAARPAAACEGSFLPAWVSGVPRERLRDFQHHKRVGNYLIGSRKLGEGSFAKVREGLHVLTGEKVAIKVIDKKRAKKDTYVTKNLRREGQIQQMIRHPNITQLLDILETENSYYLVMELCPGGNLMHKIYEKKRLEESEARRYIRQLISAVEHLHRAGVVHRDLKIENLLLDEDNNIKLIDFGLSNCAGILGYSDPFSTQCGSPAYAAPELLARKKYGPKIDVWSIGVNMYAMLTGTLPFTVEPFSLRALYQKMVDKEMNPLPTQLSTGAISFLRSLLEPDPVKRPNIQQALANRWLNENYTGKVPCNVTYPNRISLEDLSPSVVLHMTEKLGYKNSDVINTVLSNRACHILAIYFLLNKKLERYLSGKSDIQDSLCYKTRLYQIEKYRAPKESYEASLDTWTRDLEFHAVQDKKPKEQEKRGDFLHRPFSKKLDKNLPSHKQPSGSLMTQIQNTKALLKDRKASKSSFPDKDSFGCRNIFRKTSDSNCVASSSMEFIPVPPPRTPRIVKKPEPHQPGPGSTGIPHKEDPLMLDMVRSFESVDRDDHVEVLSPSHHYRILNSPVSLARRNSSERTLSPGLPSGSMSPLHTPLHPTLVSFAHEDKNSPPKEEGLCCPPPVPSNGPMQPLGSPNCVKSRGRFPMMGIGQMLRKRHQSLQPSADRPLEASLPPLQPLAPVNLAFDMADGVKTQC
Procedure: as §1

LATS2 = target: T3, LATS2 (Homo sapiens, UniProt Q9NRM7)
T3 construct: endogenous in cells; host or cells: K562
T3 sequence (Q9NRM7 1-1088): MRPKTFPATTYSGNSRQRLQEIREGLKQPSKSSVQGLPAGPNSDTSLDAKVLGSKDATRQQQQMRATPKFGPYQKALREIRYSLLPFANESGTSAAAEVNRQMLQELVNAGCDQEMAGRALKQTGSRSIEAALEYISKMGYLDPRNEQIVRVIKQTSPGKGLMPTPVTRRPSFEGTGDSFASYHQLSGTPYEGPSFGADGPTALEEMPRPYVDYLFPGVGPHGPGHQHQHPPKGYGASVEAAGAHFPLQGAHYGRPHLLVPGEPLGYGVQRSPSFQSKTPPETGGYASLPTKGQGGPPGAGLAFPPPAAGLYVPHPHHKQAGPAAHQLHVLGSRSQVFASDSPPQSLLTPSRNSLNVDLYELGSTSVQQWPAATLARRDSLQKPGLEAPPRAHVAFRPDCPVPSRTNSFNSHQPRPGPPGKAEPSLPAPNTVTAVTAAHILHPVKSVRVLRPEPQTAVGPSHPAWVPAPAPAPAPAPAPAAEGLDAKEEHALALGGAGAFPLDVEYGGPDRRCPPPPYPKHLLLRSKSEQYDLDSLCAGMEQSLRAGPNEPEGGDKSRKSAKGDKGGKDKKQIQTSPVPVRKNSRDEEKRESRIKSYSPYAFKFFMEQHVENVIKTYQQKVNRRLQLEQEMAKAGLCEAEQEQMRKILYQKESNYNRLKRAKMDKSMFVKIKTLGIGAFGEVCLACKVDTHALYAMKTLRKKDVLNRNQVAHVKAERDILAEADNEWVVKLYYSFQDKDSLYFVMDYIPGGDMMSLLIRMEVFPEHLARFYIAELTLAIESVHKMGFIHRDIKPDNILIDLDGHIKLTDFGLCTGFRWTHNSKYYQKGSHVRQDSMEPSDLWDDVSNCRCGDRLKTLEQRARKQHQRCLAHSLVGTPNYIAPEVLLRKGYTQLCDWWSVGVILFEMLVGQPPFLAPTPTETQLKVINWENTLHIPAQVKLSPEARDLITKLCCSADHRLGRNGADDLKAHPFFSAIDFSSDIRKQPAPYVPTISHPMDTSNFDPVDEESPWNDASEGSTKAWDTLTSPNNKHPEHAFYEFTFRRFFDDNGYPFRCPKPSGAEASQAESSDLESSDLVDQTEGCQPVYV
Procedure: as §1

LYN = target: T4, LYN (Homo sapiens, UniProt P07948)
T4 construct: endogenous in cells; host or cells: K562
T4 sequence (P07948 whole entry): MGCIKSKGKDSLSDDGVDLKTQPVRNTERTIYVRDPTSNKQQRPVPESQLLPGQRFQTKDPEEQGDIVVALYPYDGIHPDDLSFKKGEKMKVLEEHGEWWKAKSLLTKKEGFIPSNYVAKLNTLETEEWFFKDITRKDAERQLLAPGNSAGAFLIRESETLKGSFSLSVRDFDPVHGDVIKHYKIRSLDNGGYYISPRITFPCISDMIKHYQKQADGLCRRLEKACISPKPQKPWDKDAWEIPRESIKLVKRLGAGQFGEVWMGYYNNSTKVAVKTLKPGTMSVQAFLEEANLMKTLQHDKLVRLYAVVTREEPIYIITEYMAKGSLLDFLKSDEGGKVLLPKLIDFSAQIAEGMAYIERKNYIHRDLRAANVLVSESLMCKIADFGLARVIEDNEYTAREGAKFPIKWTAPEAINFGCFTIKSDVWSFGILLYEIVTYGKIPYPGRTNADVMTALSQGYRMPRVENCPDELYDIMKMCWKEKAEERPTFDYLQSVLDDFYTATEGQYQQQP
Procedure: as §1

MAP2K3 = target: T5, MAP2K3 (Homo sapiens, UniProt P46734);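 as to 0.001 uM KAM: median log10 fold change of treatment over DMSO control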;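 as to 0.01 uM KAM: median log10 fold change of treatment over DMSO control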;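 as to 0.1 uM KAM: median log10 fold change of treatment over DMSO control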;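 as to 1 uM KAM: median log10 fold change of treatment over DMSO control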;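 as to 10 uM KAM: median log10 fold change of treatment over DMSO control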
T5 construct: endogenous in cells; host or cells: K562 cell lysate
T5 sequence (P46734 1-347): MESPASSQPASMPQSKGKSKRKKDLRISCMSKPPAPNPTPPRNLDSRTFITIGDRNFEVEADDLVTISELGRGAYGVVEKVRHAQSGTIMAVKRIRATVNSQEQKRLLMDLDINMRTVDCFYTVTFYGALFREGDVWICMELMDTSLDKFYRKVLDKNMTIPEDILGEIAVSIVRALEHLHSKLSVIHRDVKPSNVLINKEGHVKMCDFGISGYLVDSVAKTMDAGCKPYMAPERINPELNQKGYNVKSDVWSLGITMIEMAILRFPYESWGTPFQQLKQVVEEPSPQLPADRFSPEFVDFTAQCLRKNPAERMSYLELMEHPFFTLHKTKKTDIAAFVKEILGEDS
Procedure: as §1

MARK2 = target: T6, MARK2 (Homo sapiens, UniProt Q7KZI7)
T6 construct: endogenous in cells; host or cells: K562
T6 sequence (Q7KZI7 whole entry): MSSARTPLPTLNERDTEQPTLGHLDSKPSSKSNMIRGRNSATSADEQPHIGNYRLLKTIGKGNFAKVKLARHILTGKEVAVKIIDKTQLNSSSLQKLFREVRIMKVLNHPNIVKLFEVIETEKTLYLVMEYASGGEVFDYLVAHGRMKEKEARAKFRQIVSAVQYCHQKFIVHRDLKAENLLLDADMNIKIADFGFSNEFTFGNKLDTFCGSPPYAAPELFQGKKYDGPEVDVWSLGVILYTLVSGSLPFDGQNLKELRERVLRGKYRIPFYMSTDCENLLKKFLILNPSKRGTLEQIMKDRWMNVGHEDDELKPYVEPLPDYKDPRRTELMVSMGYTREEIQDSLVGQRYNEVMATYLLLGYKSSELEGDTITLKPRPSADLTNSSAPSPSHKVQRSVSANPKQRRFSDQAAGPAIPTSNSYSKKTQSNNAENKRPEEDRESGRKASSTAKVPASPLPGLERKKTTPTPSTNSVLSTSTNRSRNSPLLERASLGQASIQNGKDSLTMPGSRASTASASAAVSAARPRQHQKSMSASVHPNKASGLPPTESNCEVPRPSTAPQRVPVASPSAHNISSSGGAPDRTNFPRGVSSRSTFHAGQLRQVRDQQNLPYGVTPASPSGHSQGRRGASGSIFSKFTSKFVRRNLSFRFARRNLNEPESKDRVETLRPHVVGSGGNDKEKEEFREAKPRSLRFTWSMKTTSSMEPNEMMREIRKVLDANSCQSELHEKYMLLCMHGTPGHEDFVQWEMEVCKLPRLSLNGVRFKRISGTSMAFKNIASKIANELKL
Procedure: as §1

[1] = KAM 0.001-10 uM, read-out: RB50 (the source's name)
[2] = read-out: RB50 (the source's name)

**Q.** What does the source list for N#CCc1ccc(Nc2nc(NCCCN)cc(Nc3cc(C4CC4)[nH]n3)n2)cc1 [KAM]?
**A.** IC50 (CDC42BPA; [1]): > 10 µM; 0.001 uM KAM (CDC42BPA; relative to 0 uM KAM = 0): -0.02138; 0.01 uM KAM (CDC42BPA; relative to 0 uM KAM = 0): -0.0113; 0.1 uM KAM (CDC42BPA; relative to 0 uM KAM = 0): -0.01108; 1 uM KAM (CDC42BPA; relative to 0 uM KAM = 0): 0.04656; 10 uM KAM (CDC42BPA; relative to 0 uM KAM = 0): -0.06135; IC50 (HUNK; [1]): > 10 µM; 0.001 uM KAM (HUNK; relative to 0 uM KAM = 0): 0.08544; 0.01 uM KAM (HUNK; relative to 0 uM KAM = 0): 0.04291; 0.1 uM KAM (HUNK; relative to 0 uM KAM = 0): 0.1545; 1 uM KAM (HUNK; relative to 0 uM KAM = 0): 0.0644; 10 uM KAM (HUNK; relative to 0 uM KAM = 0): 0.1031; median Log10 fold change (LATS2; 0.001 uM KAM): 0.01099; median Log10 fold change (LATS2; 0.01 uM KAM): -0.05599; median Log10 fold change (LATS2; 0.1 uM KAM): -0.2153; median Log10 fold change (LATS2; 1 uM KAM): -0.4993; median Log10 fold change (LATS2; 10 uM KAM): -0.5621; IC50 (LATS2; [2]): 0.251 µM; median Log10 fold change (LYN; 0.001 uM KAM): -0.01474; median Log10 fold change (LYN; 0.01 uM KAM): -0.009336; median Log10 fold change (LYN; 0.1 uM KAM): -0.1214; median Log10 fold change (LYN; 1 uM KAM): -0.4299; median Log10 fold change (LYN; 10 uM KAM): -0.513; IC50 (LYN; [2]): 0.601 µM; IC50 (MAP2K3; [1]): > 10 µM; 0.001 uM KAM (MAP2K3; relative to 0 uM KAM = 0): 0.005145; 0.01 uM KAM (MAP2K3; relative to 0 uM KAM = 0): -0.01205; 0.1 uM KAM (MAP2K3; relative to 0 uM KAM = 0): -0.0928; 1 uM KAM (MAP2K3; relative to 0 uM KAM = 0): -0.1584; 10 uM KAM (MAP2K3; relative to 0 uM KAM = 0): -0.2828; median Log10 fold change (MARK2; 0.001 uM KAM): -0.02617; median Log10 fold change (MARK2; 0.01 uM KAM): -0.01928; median Log10 fold change (MARK2; 0.1 uM KAM): -0.2168; median Log10 fold change (MARK2; 1 uM KAM): -0.4361; median Log10 fold change (MARK2; 10 uM KAM): -0.5469; IC50 (MARK2; [2]): 0.336 µM
